Numbered stars: 1 amine (or outer) side, 2 acyl side, 3 side chain; on linkers, the order of the positions; unused ones are H or OH. Bridge positions count the residues as written; N and C are the ends. Square brackets hold non-standard residues; d marks the D form. Side chains are listed from the residue outwards. Peptide text beside a SMILES is read from it. * marks the point of attachment. C20 diacid = O=C(O)CCCCCCCCCCCCCCCCCCC(=O)*; C18 diacid = O=C(O)CCCCCCCCCCCCCCCCC(=O)*; γGlu = O=C(O)[C@H](CCC(=O)[*:2])N[*:1]; Hyp = O=C(O)[C@@H]1C[C@@H](O)CN1; AEEA = NCCOCCOCC(=O)O
Tests used:
[1] = target: T1, human amylin receptor (Homo sapiens, UniProt O60896+P30988); experiment: Luciferase assay of amylin derivatives in amylin receptor/CRE-luc CHO cell line; assay type: cell-based; details: CHO-K1/Ga15/AMY3 CRE-luc cells, 24 hours incubation, F12 medium containing 10% FBS; read-out: EC50
T1 construct: host or cells: CHO-K1/Ga15/AMY3 cells, further stably transfected with a CRE-luciferase plasmid
T1 sequence (P30988 25-474): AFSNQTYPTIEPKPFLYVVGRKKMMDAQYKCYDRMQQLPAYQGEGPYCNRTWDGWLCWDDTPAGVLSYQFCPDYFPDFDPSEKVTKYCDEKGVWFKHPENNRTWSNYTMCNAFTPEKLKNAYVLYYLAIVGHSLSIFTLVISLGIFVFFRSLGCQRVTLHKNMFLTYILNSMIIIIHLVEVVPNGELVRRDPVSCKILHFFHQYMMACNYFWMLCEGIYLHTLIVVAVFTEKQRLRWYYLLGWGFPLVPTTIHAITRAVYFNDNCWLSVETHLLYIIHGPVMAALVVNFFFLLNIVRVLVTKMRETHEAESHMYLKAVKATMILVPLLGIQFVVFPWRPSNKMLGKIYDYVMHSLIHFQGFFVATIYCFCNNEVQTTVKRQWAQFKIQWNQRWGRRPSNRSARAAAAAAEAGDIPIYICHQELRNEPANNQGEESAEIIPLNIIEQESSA
T1 sequence (O60896 24-148 partner): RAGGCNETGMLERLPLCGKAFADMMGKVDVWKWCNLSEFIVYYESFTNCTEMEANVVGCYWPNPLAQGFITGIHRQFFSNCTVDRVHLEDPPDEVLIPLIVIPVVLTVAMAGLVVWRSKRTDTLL
Experimental: The experiment was intended to detect the activity or efficacy of the amylin derivatives on a human amylin receptor in vitro by luciferase assay.
50 μL of growth medium (F12 medium containing 10% FBS) was added into each well of a white 96-well plate, and the stably transfected amylin/CRE-lue CHO cells were inoculated into the white 96-well plate at a density of about 20,000 cells/well for activity determination.

[2] = assay type: physicochemical
Experimental: The penicillin bottle after covering was placed in a stability test box at 40° C. Before testing, a sample was centrifuged at 10,000 rpm and 4° C. for 3 minutes, and a supernatant was taken and added into a liquid-phase sample injection bottle. The sample was detected by the liquid phase method in Example 3.

[3] = Freeze-thaw stability of derivatives (freeze-thaw yield by liquid chromatography); assay type: physicochemical
Summary of the method: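 Freeze-thaw yield is the ratio of peptide concentration after versus before one overnight −20° C freeze and room-temperature thaw, both quantified by RP-HPLC of supernatant after centrifugation. Samples were 0.2 mg/ml freeze-dried derivative in 20 mM PB, pH 7.0.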

[4] = Weight loss efficacy of derivatives in SD rats (Example 5); assay type: in vivo, SD (Sprague Dawley) rats; details: experimental group B, subcutaneous, 30 nmol/kg
Description: SD (Sprague Dawley) rats weighing 200 g to 250 g were selected for this experimental study. Before the experiment, the rats arrived for at least 10 days to 14 days to adapt to the experimental environment. During this period, the rats were fed for two weeks in a reversed light/dark stage (meaning that the light was turned off during the day and turned on during the night) after arrival, and were fed separately in the first week of arrival to ensure accurate data and high test sensitivity, and the rats were free to obtain food and water during the whole adaptation period and experimental period. There were an experimental group [NT]5 and A6, and an experimental group B: B1, B2, B3, B4 and B5, with 5 to 8 rats in each treatment group of the derivative, and the rats in each group were subcutaneously administered with a derivative or a solvent by a dosage of 30 nmol/kg. The administration time of each group was recorded. After administration, the rats were put back into their cages in which the rats could get food and water. Food consumption and weight changes of the rats were recorded every 24 hours by online recording or manual recording. Weight and food intake changes of the SD rats in each group were as shown in FIG. 2A to FIG. 2D, Table 9 and Table 10.

**Q.** With `CC[C@H](C)[C@H](NC(=O)[C@@H]1CCCN1C(=O)CNC(=O)[C@H](CC(C)C)NC(=O)[C@H](CC(N)=O)NC(=O)[C@H](CC(N)=O)NC(=O)[C@H](CO)NC(=O)[C@H](CO)NC(=O)[C@H](Cc1c[nH]cn1)NC(=O)[C@H](CCCNC(=N)N)NC(=O)[C@H](CC(C)C)NC(=O)[C@H](Cc1ccccc1)NC(=O)[C@H](CC(=O)O)NC(=O)[C@H](C)NC(=O)[C@H](CC(C)C)NC(=O)[C@H](CCCNC(=N)N)NC(=O)[C@H](CCC(N)=O)NC(=O)[C@@H](NC(=O)[C@H](C)NC(=O)[C@@H]1CSSC[C@H](NC(=O)[C@@H](N)CCCCNC(=O)CC[C@H](NC(=O)CCCCCCCCCCCCCCCCCCC(=O)O)C(=O)O)C(=O)N[C@@H](CC(N)=O)C(=O)N[C@@H]([C@@H](C)O)C(=O)N[C@@H](C)C(=O)N[C@@H]([C@@H](C)O)C(=O)N1)[C@@H](C)O)C(=O)N[C@@H](CC(C)C)C(=O)N1CCC[C@H]1C(=O)N1CCC[C@H]1C(=O)N[C@H](C(=O)N[C@@H](CC(N)=O)C(=O)N[C@H](C(=O)NCC(=O)N[C@@H](CO)C(=O)N[C@@H](CC(N)=O)C(=O)N[C@H](C(=O)N1C[C@H](O)C[C@H]1C(N)=O)[C@@H](C)O)C(C)C)[C@@H](C)O` [PD070] (H-K([γGlu-C20 diacid])CNTATCATQRLADFLRHSSNNLGPILPPTNVGSNT[Hyp]-NH2; disulfide 2-7) as the molecule, how does the EC50 [1] read?
**A.** Its EC50 is 38 pM.

**Q.** What about the thermal stability [2] of the same molecule?
**A.** The thermal stability was “extremely low decrease percentage of protein concentration”.

**Q.** Which EC50 [1] does the source give for `CC[C@H](C)[C@H](NC(=O)[C@@H]1CCCN1C(=O)CNC(=O)[C@H](CC(C)C)NC(=O)[C@H](CC(N)=O)NC(=O)[C@H](CC(N)=O)NC(=O)[C@H](CO)NC(=O)[C@H](CO)NC(=O)[C@H](Cc1c[nH]cn1)NC(=O)[C@H](CCCNC(=N)N)NC(=O)[C@H](CC(C)C)NC(=O)[C@H](Cc1ccccc1)NC(=O)[C@H](CC(=O)O)NC(=O)[C@H](C)NC(=O)[C@H](CC(C)C)NC(=O)[C@H](CCCNC(=N)N)NC(=O)[C@H](CCC(N)=O)NC(=O)[C@@H](NC(=O)[C@H](C)NC(=O)[C@@H]1CSSC[C@H](NC(=O)[C@H](CCCCN)NC(=O)COCCOCCNC(=O)COCCOCCNC(=O)CC[C@H](NC(=O)CCCCCCCCCCCCCCCCC(=O)O)C(=O)O)C(=O)N[C@@H](CC(N)=O)C(=O)N[C@@H]([C@@H](C)O)C(=O)N[C@@H](C)C(=O)N[C@@H]([C@@H](C)O)C(=O)N1)[C@@H](C)O)C(=O)N[C@@H](CC(C)C)C(=O)N1CCC[C@H]1C(=O)N1CCC[C@H]1C(=O)N[C@H](C(=O)N[C@@H](CC(N)=O)C(=O)N[C@H](C(=O)NCC(=O)N[C@@H](CO)C(=O)N[C@@H](CC(N)=O)C(=O)N[C@H](C(=O)N1C[C@H](O)C[C@H]1C(N)=O)[C@@H](C)O)C(C)C)[C@@H](C)O` [PD126] ({C18 diacid-γGlu-AEEA-AEEA}-KCNTATCATQRLADFLRHSSNNLGPILPPTNVGSNT[Hyp]-NH2; disulfide 2-7 (inferred)) here?
**A.** The EC50 was 28 pM.

**Q.** What about the Dissolution property ([3]; appearance after dissolution at 0.2 mg/ml in 20 mM phosphate buffer solution (PB) (pH 7.0)) of the same molecule?
**A.** The Dissolution property was “Clear”.

**Q.** What about the Freeze storage property ([3]; appearance after overnight storage at −20° C. and thawing to room temperature, 0.2 mg/ml in 20 mM PB (pH 7.0)) of the same molecule?
**A.** Its Freeze storage property is “Clear”.

**Q.** And the Freeze storage yield ([3]; concentration of polypeptide after freezing and thawing / concentration before, by liquid chromatography, −20° C. overnight)?
**A.** Its Freeze storage yield is 99.24%.

**Q.** Which EC50 [1] does the source give for `CC[C@H](C)[C@H](NC(=O)[C@@H]1CCCN1C(=O)[C@H](CCCNC(=N)N)NC(=O)[C@H](CC(C)C)NC(=O)[C@H](CC(N)=O)NC(=O)[C@H](CC(N)=O)NC(=O)[C@H](CO)NC(=O)[C@H](CO)NC(=O)[C@H](Cc1c[nH]cn1)NC(=O)[C@H](CCCNC(=N)N)NC(=O)[C@H](CC(C)C)NC(=O)[C@H](Cc1ccccc1)NC(=O)[C@H](CC(=O)O)NC(=O)[C@H](C)NC(=O)[C@H](CC(C)C)NC(=O)[C@H](CCCNC(=N)N)NC(=O)[C@H](CCC(N)=O)NC(=O)[C@@H](NC(=O)[C@H](C)NC(=O)[C@@H]1CSSC[C@H](NC(=O)[C@H](CCCCN)NC(=O)CC[C@H](NC(=O)CCCCCCCCCCCCCCCCCCC(=O)O)C(=O)O)C(=O)N[C@@H](CC(N)=O)C(=O)N[C@@H]([C@@H](C)O)C(=O)N[C@@H](C)C(=O)N[C@@H]([C@@H](C)O)C(=O)N1)[C@@H](C)O)C(=O)N[C@@H](CC(C)C)C(=O)N1CCC[C@H]1C(=O)N1CCC[C@H]1C(=O)N[C@H](C(=O)N[C@@H](CC(N)=O)C(=O)N[C@H](C(=O)NCC(=O)N[C@@H](CO)C(=O)N[C@@H](CC(N)=O)C(=O)N[C@H](C(=O)N1C[C@H](O)C[C@H]1C(N)=O)[C@@H](C)O)C(C)C)[C@@H](C)O` [PD158] ({C20 diacid-γGlu}-KCNTATCATQRLADFLRHSSNNLRPILPPTNVGSNT[Hyp]-NH2; disulfide 2-7 (inferred)) here?
**A.** Its EC50 is 22 pM.

**Q.** What about the “Weight change rate at 48th hour” value [4] of the same molecule?
**A.** Its value is −8.37.

**Q.** Which EC50 [1] does the source give for `CC[C@H](C)[C@H](NC(=O)[C@@H]1CCCN1C(=O)[C@H](CCCCN)NC(=O)[C@H](CC(C)C)NC(=O)[C@H](CC(N)=O)NC(=O)[C@H](CC(N)=O)NC(=O)[C@H](CO)NC(=O)[C@H](CO)NC(=O)[C@H](Cc1c[nH]cn1)NC(=O)[C@H](CCCNC(=N)N)NC(=O)[C@H](CC(C)C)NC(=O)[C@H](Cc1ccccc1)NC(=O)[C@H](CC(=O)O)NC(=O)[C@H](C)NC(=O)[C@H](CC(C)C)NC(=O)[C@H](CCCNC(=N)N)NC(=O)[C@H](CCC(N)=O)NC(=O)[C@@H](NC(=O)[C@H](C)NC(=O)[C@@H]1CSSC[C@H](NC(=O)[C@H](CCCCN)NC(=O)CC[C@H](NC(=O)CCCCCCCCCCCCCCCCCCC(=O)O)C(=O)O)C(=O)N[C@@H](CC(N)=O)C(=O)N[C@@H]([C@@H](C)O)C(=O)N[C@@H](C)C(=O)N[C@@H]([C@@H](C)O)C(=O)N1)[C@@H](C)O)C(=O)N[C@@H](CC(C)C)C(=O)N1CCC[C@H]1C(=O)N1CCC[C@H]1C(=O)N[C@H](C(=O)N[C@@H](CC(N)=O)C(=O)N[C@H](C(=O)NCC(=O)N[C@@H](CO)C(=O)N[C@@H](CC(N)=O)C(=O)N[C@H](C(=O)N1CCC[C@H]1C(N)=O)[C@@H](C)O)C(C)C)[C@@H](C)O` [PD160] ({C20 diacid-γGlu}-KCNTATCATQRLADFLRHSSNNLKPILPPTNVGSNTP-NH2; disulfide 2-7 (inferred)) here?
**A.** The EC50 was 35 pM.

**Q.** And the “Weight change rate at 48th hour” value [4]?
**A.** Its value is −7.87.

**Q.** Which EC50 [1] does the source give for `CC[C@H](C)[C@H](NC(=O)[C@@H]1CCCN1C(=O)[C@H](CCCNC(=N)N)NC(=O)[C@H](CC(C)C)NC(=O)[C@H](CC(N)=O)NC(=O)[C@H](CC(N)=O)NC(=O)[C@H](CO)NC(=O)[C@H](CO)NC(=O)[C@H](Cc1c[nH]cn1)NC(=O)[C@H](CCCNC(=N)N)NC(=O)[C@H](CC(C)C)NC(=O)[C@H](Cc1ccccc1)NC(=O)[C@H](CC(=O)O)NC(=O)[C@H](C)NC(=O)[C@H](CC(C)C)NC(=O)[C@H](CCCNC(=N)N)NC(=O)[C@H](CCC(N)=O)NC(=O)[C@@H](NC(=O)[C@H](C)NC(=O)[C@@H]1CSSC[C@H](NC(=O)[C@H](CCCCN)NC(=O)CC[C@H](NC(=O)CCCCCCCCCCCCCCCCCCC(=O)O)C(=O)O)C(=O)N[C@@H](CC(N)=O)C(=O)N[C@@H]([C@@H](C)O)C(=O)N[C@@H](C)C(=O)N[C@@H]([C@@H](C)O)C(=O)N1)[C@@H](C)O)C(=O)N[C@@H](CC(C)C)C(=O)N1CCC[C@H]1C(=O)N1CCC[C@H]1C(=O)N[C@H](C(=O)N[C@@H](CC(N)=O)C(=O)N[C@H](C(=O)NCC(=O)N[C@@H](CO)C(=O)N[C@@H](CC(N)=O)C(=O)N[C@H](C(=O)N1CCC[C@H]1C(N)=O)[C@@H](C)O)C(C)C)[C@@H](C)O` [PD161] ({C20 diacid-γGlu}-KCNTATCATQRLADFLRHSSNNLRPILPPTNVGSNTP-NH2; disulfide 2-7 (inferred)) here?
**A.** Its EC50 is 26 pM.

**Q.** What about the “Weight change rate at 48th hour” value [4] of the same molecule?
**A.** Its value is −7.81.

From patent US20260166128A1, “HUMAN AMYLIN ANALOG, AND DERIVATIVE THEREOF AND USE THEREOF” (priority 2022, published 2026)
